Assay results published in article PMC11219744, “Renal excretion of 1,2-dihydroxynaphthalene (DHN) in firefighting instructors after exposure to polycyclic aromatic hydrocarbons (PAHs) during live fire training” (Scientific Reports, 2024).

Experiments:
[1] = cited from earlier work
[2] = Time to peak and initial elimination half-life of the urinary biomarkers (first-order model, linear mixed effects); type: in vivo, human
Description: The initial half-life of each biomarker was estimated using statistical methods described previously[6],[32]. In short, we estimated the first-order elimination rate constant λ based on the model in Eq. (1):1 C=C0+B·e^λ·t+∈
Here, C is the creatinine-adjusted concentration in urine after the uptake phase, C0 is the baseline concentration before training, B is the difference from peak to baseline concentration, t is the time since peak concentration, and ϵ is the error term. […] Using package nlme[33] for the statistical environment R[34],[35], the model was fitted as a linear mixed effects model for the log concentration difference to baseline ln(C–C0) as the outcome. The model was fitted simultaneously for all data and included fixed effects for biomarker, time since peak, and their interaction term. It used random slopes for time since peak and random intercepts for […]. Errors were assumed to be autocorrelated according to an AR(1) process.

[3] = upper margin of internal exposure typically found in smokers; cited from earlier work
[4] = parameters: method as in PMID 32464238; settings: by scheduled sampling time; cited from earlier work
[5] = Human biomonitoring: urinary excretion of PAH metabolites (GC–MS/MS, creatinine-normalised) in firefighting instructors before and after live fire training
Experimental: All study participants (n = 6) were male firefighting instructors from Germany. […] Before the start of the study, all subjects declared that they were non-smokers. Tattoo bearers were excluded before the start of the study as tattoo ink can be a potential source of polycyclic aromatic hydrocarbons. The authors declare that this research was conducted in accordance with the relevant regulations, including the Declaration of Helsinki. All subjects gave written informed consent after being informed about the study by the investigator.
Exposure to combustion products took place in several training sessions that simulated live fire conditions by burning a defined number of uncoated chipboards in an overseas container. The container was located in a hall with exhaust air purification. […] In addition, all subjects wore long-sleeved undergarments under their turnout gear. Only laundered clothing and cleaned equipment (e.g. helmets, masks) were used. The donning and doffing of clothing and protective equipment took place only in a smoke-free, well-ventilated area. Immediately after taking off the firefighters' gloves after training, the participants put on nitrile gloves for further undressing. After removing the helmet, flash hood and SCBA face shield, the participants put on particle filtering half masks (FFP3) to remove contaminated turnout jackets and trousers. After a break for rehydration and cool down still wearing their undergarments, the participants went to shower. […] The interval between two consecutive training sessions for each subject was at least six days. […] In this way, each subject was biomonitored at each of the five training sessions. All additional (unscheduled) urinations between the predefined times were also collected in separate containers and pooled afterwards with the next scheduled sample. […] A total of 270 samples were to be collected using this procedure for all participants and five training sessions of each individual. Subjects completed a questionnaire for each sampling period to account for possible pre-exposure or concurrent exposure to PAHs from sources other than the fire simulation unit, such as occupational exposure to combustion products, exposure to tobacco smoke (active/passive) and barbecue activities, and consumption of smoked or charbroiled foods.
In brief, the analytes were extracted by liquid–liquid extraction with n-hexane after enzymatic hydrolysis of the urine samples with ß-glucuronidase/arylsulfatase (isolated from helix pomatia) and derivatised by silylation with N-trimethylsilyl-N-methyl trifluoroacetamide afterwards. […] All standards were obtained from LGC-Standards, Wesel, Germany.
DHN in urine was determined referring to a method described in detail by Klotz et al.[29]. […] External calibration with internal standardisation by an isotopically labelled analogue of the target compound was done by analysis of pool urine samples spiked with the glucuronides of DHN and D6-1,2-dihydroxynaphthalene (internal standard) before enzymatic hydrolysis. Both standards are not commercially available and were obtained as a gift from the Institute of Occupational, Social and Environmental Medicine at the University of Erlangen-Nuremberg (Germany). A detailed description of the synthesis of the compounds is given by[26]. […] Up to now, there is no external quality assessment scheme available for DHN.
Urinary creatinine was analysed in the Institute of Clinical Chemistry and Laboratory Medicine of University Medical Centre of the Johannes Gutenberg University Mainz using a photometrical assay based on the method of[30].

[6] = urinary excretion, time after onset of exposure

In the case of `c1ccc2ccccc2c1` [NAP, naphthalene], the IARC carcinogenicity category [1] is listed as “group 2B (possibly carcinogenic to humans)”.
In the case of `Oc1ccc2ccccc2c1` [2-NAP, 2-hydroxynaphthalene], the half-life ([2]; male, human, initial elimination half-life after peak excretion, urine, read-out: Estimated half-life, mean (converted)) was 5.2 h, the “Time to peak, median” value [2, 6] was 3.3 h and the “Time to peak, range” value [2, 6] was 2.2 to 11.2 h. The “95th percentile of urinary concentration in smokers” value [3] was 29.0 µg/g crea, the “Time of peak excretion after the end of the training session” value [4] was 1 h and the “Proportion in the total excretion of the three naphthalene metabolites” value ([5]; after exposure (after sampling 3, rest of the sampling period), based on median concentrations) was “lower than 10%”. For the same compound, the “Increase in concentration from before exposure up to the maximum of excretion, factor” value ([5]; male, human, in vivo) was “about 6”, the “Concentration in urine, IQR” value ([5]; male, human, in vivo, 0 h) was 4.55–9.78 µg/g creatinine and the “Concentration in urine, range” value ([5]; male, human, in vivo, 0 h) was 2.07–42.68 µg/g creatinine. For the same compound, the “Concentration in urine, IQR” value ([5]; male, human, in vivo, 1 h) was 11.05–18.20 µg/g creatinine, the “Concentration in urine, median” value ([5]; male, human, in vivo, 1 h) was 11.96 µg/g creatinine and the “Concentration in urine, range” value ([5]; male, human, in vivo, 1 h) was 3.97–58.89 µg/g creatinine. For the same compound, the “Concentration in urine, median” value ([5]; male, human, in vivo, 2 h) was 7.42 µg/g creatinine, the “Concentration in urine, IQR” value ([5]; male, human, in vivo, 3 h) was 8.14–14.40 µg/g creatinine and the “Concentration in urine, median” value ([5]; male, human, in vivo, 3 h) was 10.07 µg/g creatinine. The “Concentration in urine, range” value ([5]; male, human, in vivo, 3 h) was 5.62–23.16 µg/g creatinine, the “Concentration in urine, IQR” value ([5]; male, human, in vivo, 6 h) was 3.62–7.98 µg/g creatinine and the “Concentration in urine, median” value ([5]; male, human, in vivo, 6 h) was 5.12 µg/g creatinine. For the same compound, the “Concentration in urine, range” value ([5]; male, human, in vivo, 6 h) was 1.17–12.78 µg/g creatinine, the “Concentration in urine, IQR” value ([5]; male, human, in vivo, 9 h) was 2.34–5.27 µg/g creatinine and the “Concentration in urine, median” value ([5]; male, human, in vivo, 9 h) was 3.48 µg/g creatinine. For the same compound, the “Concentration in urine, range” value ([5]; male, human, in vivo, 9 h) was 1.30–11.32 µg/g creatinine, the “Concentration in urine, IQR” value ([5]; male, human, in vivo, 11 h) was 1.76–4.19 µg/g creatinine and the “Concentration in urine, median” value ([5]; male, human, in vivo, 11 h) was 3.14 µg/g creatinine. The “Concentration in urine, range” value ([5]; male, human, in vivo, 11 h) was 1.08–10.02 µg/g creatinine, the “Concentration in urine, IQR” value ([5]; male, human, in vivo, 18 h) was 1.93–4.24 µg/g creatinine and the “Concentration in urine, median” value ([5]; male, human, in vivo, 18 h) was 3.26 µg/g creatinine. The “Concentration in urine, range” value ([5]; male, human, in vivo, 18 h) was 1.02–14.56 µg/g creatinine, the “Median increase in morning urine after exposure (sampling 9) vs. before (sampling 1)” value ([5]; male, human, in vivo, 18 h) was 1.5 fold and the “Concentration in urine, IQR” value ([5]; male, human, in vivo, -0.4 h) was 1.13–3.47 µg/g creatinine. The “Concentration in urine, median” value ([5]; male, human, in vivo, -0.4 h) was 1.94 µg/g creatinine, the “Concentration in urine, range” value ([5]; male, human, in vivo, -0.4 h) was 0.21–10.94 µg/g creatinine and the “Concentration in urine, IQR” value ([5]; male, human, in vivo, -4.2 h) was 1.18–2.88 µg/g creatinine. For the same compound, the “Concentration in urine, median” value ([5]; male, human, in vivo, -4.2 h) was 2.00 µg/g creatinine, the “Concentration in urine, range” value ([5]; male, human, in vivo, -4.2 h) was 0.30–10.02 µg/g creatinine and the “Median increase from baseline (sample 2) to peak excretion” value ([5]; peak: sample 5 for 1-PYR, sample 4 otherwise) was 6.6 fold.
